From PubChem BioAssay AID1963977 (Molecular Pharmacology Branch, DTP, NCI, 2024)
“And” between values parts separate entries of the source, which are not always exact repeats. Equal values may be shown once.

Test system: 624824-186-R-J3-PDC multicell spheroids, viability
Assay: Anticancer human tumor 624824-186-R-J3-PDC patient-derived colon adenocarcinoma cell line growth inhibition [PI3K]
Settings: for viability, T/C: stronger effect = lower value
How it was run: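 Agents were dosed from a top concentration near clinical Cmax (otherwise 10 microM) in half-log decrements, alone or combined with PI3K inhibitors. The spheroids contain tumor cells plus endothelial (HUVEC) and MSC stroma; viability is measured.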

[1] = curve of first compound, second compound 0.00316 µM
[2] = curve of first compound, second compound 0.01 µM
[3] = curve of first compound, second compound 0.0316 µM
[4] = curve of first compound, second compound 0.1 µM
[5] = curve of first compound, second compound 0.316 µM
[6] = curve of first compound, second compound 1 µM
[7] = second compound 0.00316 µM, first compound 0.0316 µM
[8] = second compound 0.00316 µM, first compound 0.1 µM
[9] = second compound 0.00316 µM, first compound 0.316 µM
[10] = second compound 0.00316 µM, first compound 1 µM
[11] = second compound 0.00316 µM, first compound 3.16 µM
[12] = second compound 0.00316 µM, first compound 10 µM
[13] = second compound 0.01 µM, first compound 0.0316 µM
[14] = second compound 0.01 µM, first compound 0.1 µM
[15] = second compound 0.01 µM, first compound 0.316 µM
[16] = second compound 0.01 µM, first compound 1 µM
[17] = second compound 0.01 µM, first compound 3.16 µM
[18] = second compound 0.01 µM, first compound 10 µM
[19] = second compound 0.0316 µM, first compound 0.0316 µM
[20] = second compound 0.0316 µM, first compound 0.1 µM
[21] = second compound 0.0316 µM, first compound 0.316 µM
[22] = second compound 0.0316 µM, first compound 1 µM
[23] = second compound 0.0316 µM, first compound 3.16 µM
[24] = second compound 0.0316 µM, first compound 10 µM
[25] = second compound 0.1 µM, first compound 0.0316 µM
[26] = second compound 0.1 µM, first compound 0.1 µM
[27] = second compound 0.1 µM, first compound 0.316 µM
[28] = second compound 0.1 µM, first compound 1 µM
[29] = second compound 0.1 µM, first compound 3.16 µM
[30] = second compound 0.1 µM, first compound 10 µM
[31] = second compound 0.316 µM, first compound 0.0316 µM
[32] = second compound 0.316 µM, first compound 0.1 µM
[33] = second compound 0.316 µM, first compound 0.316 µM
[34] = second compound 0.316 µM, first compound 1 µM
[35] = second compound 0.316 µM, first compound 3.16 µM
[36] = second compound 0.316 µM, first compound 10 µM
[37] = second compound 1 µM, first compound 0.0316 µM
[38] = second compound 1 µM, first compound 0.1 µM
[39] = second compound 1 µM, first compound 0.316 µM
[40] = second compound 1 µM, first compound 1 µM
[41] = second compound 1 µM, first compound 3.16 µM
[42] = second compound 1 µM, first compound 10 µM
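Note: spheroids exposed to agents for seven days before luminescence read.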
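Throughout, for viability, T/C: luminescent signal used as a stand-in for spheroid viability; percent viability relative to DMSO vehicle control wells taken as 100%.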

Work on CC(C)NCC(C(=O)N1CCN(c2ncnc3c2C(C)CC3O)CC1)c1ccc(Cl)cc1 (stereo not drawn) + COc1c(OCCCN2CCOCC2)ccc2c3n(c(=NC(=O)c4cnc(N)nc4)nc12)CCN3 yielded an IC50 [1] greater than 10 µM, an IC50 [2] greater than 10 µM and an IC50 [3] of 7.59 µM. The IC50 [4] was 4.86 µM, the IC50 [5] was 0.0351 µM and the IC50 [6] was less than 0.0316 µM. It also gave a viability, T/C [7] of 101%, a viability, T/C [8] of 103% and a viability, T/C [9] of 106%. The viability, T/C [10] was 76.1%, the viability, T/C [11] was 68.3% and the viability, T/C [12] was 56.4%. It also gave a viability, T/C [13] of 109%, a viability, T/C [14] of 97.1% and a viability, T/C [15] of 101%. For the same compound, the viability, T/C [16] was 82.2%, the viability, T/C [17] was 64.5% and the viability, T/C [18] was 52.7%. The viability, T/C [19] was 104%, the viability, T/C [20] was 110% and the viability, T/C [21] was 85.6%. It also gave a viability, T/C [22] of 84.8%, a viability, T/C [23] of 60% and a viability, T/C [24] of 46.7%. For the same compound, the viability, T/C [25] was 73.2%, the viability, T/C [26] was 75% and the viability, T/C [27] was 66.2%. The viability, T/C [28] was 60.8%, the viability, T/C [29] was 57.4% and the viability, T/C [30] was 41.4%. The viability, T/C [31] was 47.9%, the viability, T/C [32] was 49% and the viability, T/C [33] was 46.5%. It also gave a viability, T/C [34] of 38.5%, a viability, T/C [35] of 37.5% and a viability, T/C [36] of 33.7%. For the same compound, the viability, T/C [37] was 29.4%, the viability, T/C [38] was 28.5% and the viability, T/C [39] was 28.7%. It also gave a viability, T/C [40] of 27.1%, a viability, T/C [41] of 26.9% and a viability, T/C [42] of 27.8%.

For CC1(C)CCC(CN2CCN(c3ccc(C(=O)NS(=O)(=O)c4ccc(NCC5CCOCC5)c([N+](=O)[O-])c4)c(Oc4cnc5[nH]ccc5c4)c3)CC2)=C(c2ccc(Cl)cc2)C1 + Cc1nc(NC(=O)N2CCCC2C(N)=O)sc1-c1ccnc(C(C)(C)C(F)(F)F)c1, the IC50 [3] was 9.73 µM, the IC50 [4] was 9.43 µM and the IC50 [5] was greater than 10 µM. For the same compound, the IC50 [6] was greater than 10 µM, the IC50 (curve of first compound, second compound 3.16 µM) was 8.59 µM and the IC50 (curve of first compound, second compound 10 µM) was 5.3 µM. It also gave a viability, T/C [19] of 106%, a viability, T/C [20] of 99.3% and a viability, T/C [21] of 106%. It also gave a viability, T/C [22] of 101%, a viability, T/C [23] of 119% and a viability, T/C [24] of 48.7%. The viability, T/C [25] was 103%, the viability, T/C [26] was 99.9% and the viability, T/C [27] was 104%. It also gave a viability, T/C [28] of 107%, a viability, T/C [29] of 118% and a viability, T/C [30] of 46.9%. For the same compound, the viability, T/C [31] was 119%, the viability, T/C [32] was 104% and the viability, T/C [33] was 107%. It also gave a viability, T/C [34] of 103%, a viability, T/C [35] of 116% and a viability, T/C [36] of 54.6%. The viability, T/C [37] was 96.2%, the viability, T/C [38] was 93.8% and the viability, T/C [39] was 106%. The viability, T/C [40] was 96.9%, the viability, T/C [41] was 104% and the viability, T/C [42] was 53.2%. It also gave a viability, T/C (second compound 3.16 µM, first compound 0.0316 µM) of 82.5%, a viability, T/C (second compound 3.16 µM, first compound 0.1 µM) of 91.4% and a viability, T/C (second compound 3.16 µM, first compound 0.316 µM) of 90.8%. It also gave a viability, T/C (second compound 3.16 µM, first compound 1 µM) of 81.8%, a viability, T/C (second compound 3.16 µM, first compound 3.16 µM) of 91.3% and a viability, T/C (second compound 3.16 µM, first compound 10 µM) of 44.3%. The viability, T/C (second compound 10 µM, first compound 0.0316 µM) was 69.9%, the viability, T/C (second compound 10 µM, first compound 0.1 µM) was 73.8% and the viability, T/C (second compound 10 µM, first compound 0.316 µM) was 70.1%. The viability, T/C (second compound 10 µM, first compound 1 µM) was 69.7%, the viability, T/C (second compound 10 µM, first compound 3.16 µM) was 63.7% and the viability, T/C (second compound 10 µM, first compound 10 µM) was 33.3%.

With CCN1CCN(Cc2ccc(Nc3ncc(F)c(-c4cc(F)c5nc(C)n(C(C)C)c5c4)n3)nc2)CC1 the viability, T/C (compound 0.00316 µM) was 108% (2×) and 105% and 107%, the viability, T/C (compound 0.01 µM) was 106% [middle of 4 runs] and the viability, T/C (compound 0.0316 µM) was 112% (2×) and 105% and 115%. The viability, T/C (compound 0.1 µM) was 107% [middle of 4 runs], the viability, T/C (compound 0.316 µM) was 104% [middle of 4 runs] and the viability, T/C (compound 1 µM) was 104% [middle of 4 runs]. It also gave an IC50 (curve of compound) greater than 1 µM.

For C#Cc1c(F)ccc2cc(O)cc(-c3ncc4c(N5CC6CCC(C5)N6)nc(OCC56CCCN5CC(F)C6)nc4c3F)c12 (stereo not drawn) + COc1c(OCCCN2CCOCC2)ccc2c3n(c(=NC(=O)c4cnc(N)nc4)nc12)CCN3, the IC50 [1] was greater than 10 µM, the IC50 [2] was greater than 10 µM and the IC50 [3] was greater than 10 µM. The IC50 [4] was greater than 10 µM, the IC50 [5] was 0.493 µM and the IC50 [6] was less than 0.0316 µM. For the same compound, the viability, T/C [7] was 104%, the viability, T/C [8] was 116% and the viability, T/C [9] was 114%. It also gave a viability, T/C [10] of 103%, a viability, T/C [11] of 112% and a viability, T/C [12] of 111%. The viability, T/C [13] was 103%, the viability, T/C [14] was 101% and the viability, T/C [15] was 102%. For the same compound, the viability, T/C [16] was 114%, the viability, T/C [17] was 103% and the viability, T/C [18] was 103%. It also gave a viability, T/C [19] of 92%, a viability, T/C [20] of 95.5% and a viability, T/C [21] of 103%. It also gave a viability, T/C [22] of 93%, a viability, T/C [23] of 93% and a viability, T/C [24] of 90.9%. The viability, T/C [25] was 87.1%, the viability, T/C [26] was 73.7% and the viability, T/C [27] was 78.5%. For the same compound, the viability, T/C [28] was 78.2%, the viability, T/C [29] was 73.6% and the viability, T/C [30] was 63.5%. It also gave a viability, T/C [31] of 54.7%, a viability, T/C [32] of 49.9% and a viability, T/C [33] of 54.1%. The viability, T/C [34] was 46.4%, the viability, T/C [35] was 44.8% and the viability, T/C [36] was 37.6%. The viability, T/C [37] was 28.4%, the viability, T/C [38] was 27.7% and the viability, T/C [39] was 26.9%. The viability, T/C [40] was 23.5%, the viability, T/C [41] was 24.6% and the viability, T/C [42] was 17.1%.
